Test results reported in ChEMBL document CHEMBL3885881, “DrugMatrix”.

Organism: Rattus norvegicus
Experiment: DrugMatrix - Regimen: Daily Repeat
Type: toxicity, organism-based, Sprague-Dawley
Design: regimen Daily Repeat, gender Male, age 6-8 weeks
Conditions: in vivo, po, 900 mg/kg, route oral GAVAGE, dose level High, […]; for ABSOLUTE BASOPHIL / ABSOLUTE EOSINOPHIL / ABSOLUTE LYMPHOCYTE / ABSOLUTE MONOCYTE / BASOPHIL / EOSINOPHIL / ERYTHROCYTE COUNT / HEMATOCRIT / HEMOGLOBIN / LEUKOCYTE COUNT / LYMPHOCYTE / MEAN CORPUSCULAR HEMOGLOBIN / MEAN CORPUSCULAR HEMOGLOBIN CONCENTRATION / MEAN CORPUSCULAR VOLUME / MONOCYTE / NEUTROPHIL / PLATELET COUNT: tissue Blood
[1] = 72 h, tissue Plasma, time 3 day
[2] = 120 h, tissue Plasma, time 5 day

## Clc1ccc(Cl)cc1 [1,4-DICHLOROBENZENE]
72 h, time 3 day
  ABSOLUTE BASOPHIL: 33.3 cells/µL
  ABSOLUTE EOSINOPHIL: 40 cells/µL
  ABSOLUTE LYMPHOCYTE: 9740 cells/µL
  ABSOLUTE MONOCYTE: 310 cells/µL
  BASOPHIL: 0.27%
  EOSINOPHIL: 0.33%
  ERYTHROCYTE COUNT: 7.33 x10E6/uL
  HEMATOCRIT: 47.67%
  HEMOGLOBIN: 15.3 G/DL
  LEUKOCYTE COUNT: 11.53 x10E3/uL
  LYMPHOCYTE: 85.37%
  MEAN CORPUSCULAR HEMOGLOBIN: 20.83 pg
  MEAN CORPUSCULAR HEMOGLOBIN CONCENTRATION: 32.07 G/DL
  MEAN CORPUSCULAR VOLUME: 65 fL
  MONOCYTE: 2.5%
  NEUTROPHIL: 11%
  PLATELET COUNT: 1237 x10E3/uL
[1]
  ALANINE AMINOTRANSFERASE: 80.33 u/L
  ALBUMIN: 3.47 G/DL
  ALKALINE PHOSPHATASE: 437.33 u/L
  ASPARTATE AMINOTRANSFERASE: 129.33 u/L
  BLOOD UREA NITROGEN: 18.67 mg/dL
  CARBON DIOXIDE: 40 mmol/L
  CHLORIDE: 106.67 MEQ/L
  CHOLESTEROL: 71 mg/dL
  CREATINE PHOSPHOKINASE: 391 u/L
  CREATININE: 0.63 mg/dL
  GLUCOSE: 167.33 mg/dL
  LIPASE: 199.33 u/L
  PHOSPHORUS: 9.67 mg/dL
  POTASSIUM: 5.7 MEQ/L
  SODIUM: 148.67 MEQ/L
  TOTAL BILIRUBIN: 0.83 mg/dL
  TOTAL PROTEIN: 5.53 G/DL
  URIC ACID: 0.77 mg/dL
120 h, time 5 day
  ABSOLUTE BASOPHIL: 30 cells/µL
  ABSOLUTE EOSINOPHIL: 80 cells/µL
  ABSOLUTE LYMPHOCYTE: 9070 cells/µL
  ABSOLUTE MONOCYTE: 300 cells/µL
  BASOPHIL: 0.3%
  EOSINOPHIL: 0.73%
  ERYTHROCYTE COUNT: 7.06 x10E6/uL
  HEMATOCRIT: 45.4%
  HEMOGLOBIN: 14.13 G/DL
  LEUKOCYTE COUNT: 11.69 x10E3/uL
  LYMPHOCYTE: 77.37%
  MEAN CORPUSCULAR HEMOGLOBIN: 20.03 pg
  MEAN CORPUSCULAR HEMOGLOBIN CONCENTRATION: 31.1 G/DL
  MEAN CORPUSCULAR VOLUME: 64.53 fL
  MONOCYTE: 2.57%
  NEUTROPHIL: 18.23%
  PLATELET COUNT: 1234.33 x10E3/uL
[2]
  ALANINE AMINOTRANSFERASE: 88.67 u/L
  ALBUMIN: 3.83 G/DL
  ALKALINE PHOSPHATASE: 433.33 u/L
  ASPARTATE AMINOTRANSFERASE: 100.33 u/L
  BLOOD UREA NITROGEN: 16 mg/dL
  CARBON DIOXIDE: 42.33 mmol/L
  CHLORIDE: 105.33 MEQ/L
  CHOLESTEROL: 119 mg/dL
  CREATINE PHOSPHOKINASE: 376.67 u/L
  CREATININE: 0.5 mg/dL
  GLUCOSE: 166.67 mg/dL
  LIPASE: 96 u/L
  PHOSPHORUS: 9.13 mg/dL
  POTASSIUM: 5.73 MEQ/L
  SODIUM: 148.67 MEQ/L
  TOTAL BILIRUBIN: 0.6 mg/dL
  TOTAL PROTEIN: 6.27 G/DL
  URIC ACID: 0.57 mg/dL
Time 14 day
  ABSOLUTE BASOPHIL: 52 cells/µL
  ABSOLUTE EOSINOPHIL: 38 cells/µL
  ABSOLUTE LYMPHOCYTE: 10600 cells/µL
  ABSOLUTE MONOCYTE: 320 cells/µL
  BASOPHIL: 0.36%
  EOSINOPHIL: 0.28%
  ERYTHROCYTE COUNT: 7.26 x10E6/uL
  HEMATOCRIT: 44.36%
  HEMOGLOBIN: 14.58 G/DL
  LEUKOCYTE COUNT: 14.34 x10E3/uL
  LYMPHOCYTE: 74.48%
  MEAN CORPUSCULAR HEMOGLOBIN: 20.04 pg
  MEAN CORPUSCULAR HEMOGLOBIN CONCENTRATION: 32.82 G/DL
  MEAN CORPUSCULAR VOLUME: 61.16 fL
  MONOCYTE: 2.18%
  NEUTROPHIL: 22.12%
  PLATELET COUNT: 1242.2 x10E3/uL
Tissue Plasma, time 14 day
  ALANINE AMINOTRANSFERASE: 68 u/L
  ALBUMIN: 4.02 G/DL
  ALKALINE PHOSPHATASE: 529.2 u/L
  ASPARTATE AMINOTRANSFERASE: 89.8 u/L
  BLOOD UREA NITROGEN: 15.8 mg/dL
  CARBON DIOXIDE: 43.6 mmol/L
  CHLORIDE: 102.2 MEQ/L
  CHOLESTEROL: 110.2 mg/dL
  CREATINE PHOSPHOKINASE: 309 u/L
  CREATININE: 0.78 mg/dL
  GLUCOSE: 134.2 mg/dL
  LACTATE DEHYDROGENASE: 217.6 u/L
  LIPASE: 10 u/L
  PHOSPHORUS: 9.34 mg/dL
  POTASSIUM: 5.94 MEQ/L
  SODIUM: 147.8 MEQ/L
  TOTAL BILIRUBIN: 0.44 mg/dL
  TOTAL PROTEIN: 6.7 G/DL
  URIC ACID: 0.52 mg/dL
